Our source for the IC50 values is patent publication US20220347187A1, “HETEROCYCLIC COMPOUNDS AS KINASE INHIBITORS” (Nuvation Bio Inc., priority 2019, published 2022).

pIC50: −log10 of the molar value.

One assay addresses T1, CDK2 (cyclin A) (Homo sapiens, UniProt P24941).
T1 construct: purchased Invitrogen Life Technologies (screening service)
Briefly: Z'-LYTE kinase assay. It is filed as biochemical. The conditions noted are these: ATP 31 μM, 60 minutes. The procedure: IC50 values of compounds against CDK2 (cyclin A) were determined by Z′-LYTE™. These screening assays were performed at Invitrogen Life Technologies (Grand Island, N.Y.) on a low volume NBS, black 384-well plate (#4514. Corning), 0.1 μL of 100× test compound in 100% DMSO (at specific solutions) was mixed with 2.4 μL of Kinase Buffer (50 mM HEPES pH 7.5, 0.01% BRIJ-35, 10 mM MgCl2, 1 mM EGTA), 5 μL of 2× Kinase (1.22-10.3 ng CDK2/cyclin A)/Peptide (2 μM Ser/Thr 12), and 2.5 μL of 4×ATP solution (31 μM). The plates were shaken for 30 seconds, and incubated for 60 minutes at room temperature. Development Reagent Solution (5 μL of 1:1024 dilution) was added to the plates followed with another 30-second plate shake and the plates were further incubated at room temperature for one hour. The plates were read on fluorescence plate reader with Dual emission at 445 nm and 520 nm.
(§1) The following equations were used for Z′-LYTE™ Screening Assay Data Analysis. Percent inhibition (100-% activity) was fitted to the “four-parameter logistic model” in XLfit for determination of IC50 values.

The target of the next assay is T2, CDK6 (Homo sapiens, UniProt Q00534).
T2 construct: purchased Invitrogen PR8422B
T2 sequence (Q00534 whole entry): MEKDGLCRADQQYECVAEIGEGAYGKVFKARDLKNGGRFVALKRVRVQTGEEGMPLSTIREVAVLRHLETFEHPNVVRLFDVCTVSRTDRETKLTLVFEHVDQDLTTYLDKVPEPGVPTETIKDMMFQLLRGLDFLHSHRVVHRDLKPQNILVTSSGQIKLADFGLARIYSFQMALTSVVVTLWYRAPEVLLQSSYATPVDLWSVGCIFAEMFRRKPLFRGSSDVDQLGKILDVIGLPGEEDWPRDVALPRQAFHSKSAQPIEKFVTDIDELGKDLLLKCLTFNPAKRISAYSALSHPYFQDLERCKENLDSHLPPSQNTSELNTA
T2 sequence (P24385 whole entry partner): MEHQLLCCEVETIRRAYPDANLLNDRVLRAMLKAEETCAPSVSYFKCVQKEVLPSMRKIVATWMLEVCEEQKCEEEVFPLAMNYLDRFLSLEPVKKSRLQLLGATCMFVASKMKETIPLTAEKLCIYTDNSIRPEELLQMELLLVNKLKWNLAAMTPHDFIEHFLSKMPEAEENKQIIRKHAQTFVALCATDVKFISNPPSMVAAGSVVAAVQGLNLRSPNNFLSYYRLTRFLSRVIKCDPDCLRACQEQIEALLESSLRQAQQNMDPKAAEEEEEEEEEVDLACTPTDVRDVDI
Nature of the assay: In vitro kinase inhibition, luminescence (ADP-Glo) with retinoblastoma as substrate. It is filed as biochemical. The conditions noted are these: ATP 25 μM, 2H at room temperature. The procedure:
(§2) IC50 values of compounds against CDK4 and CDK6 were determined by luminescence using retinoblastoma as substrate. Kinase assays were performed in kinase buffer (#PV6135, Invitrogen, Life Technologies Grand Island. N.Y.) where total reaction volume was […] in 96-well half area white plates (#3693, Costar). One microliter of 25× test compounds at specific concentrations (e.g., final concentration range: 0.1 nM-200 nM) was mixed with 10 μL of 2.5× kinase (5 nM, CDK4 #PR8064 A and CDK6 #PR8422B, Invitrogen) solution and 14 μL of 4× mixed solution with retinoblastoma (1 μM, #12-439, EMD Millipore. Hayward, Calif.) and ATP (25 μM, #V7038, Promega, Madison, Wis.). The plates were covered and incubated for 2H at room temperature. At the end of incubation, 25 μL of stop solution—ADP Glo reagent (#V7002. Promega) was added. After incubation for 45 min at room temperature, 50 μL of detection reagent (##V7002, Promega) was added. Readings were taken at 15 min and 45 min incubation after detection reagent was added in a Synergy Neo Plate reader (BioTek, Winooski, Vt.) at single excitation of 340 nm and Dual emission at 495 nm and 520 nm respectively. The following equations were used in the CDK4 and CDK6 assay data analysis. Percent inhibition (100-% activity) was fitted to the “four-parameter logistic model” in XLfit for determination of IC50 values.
(§3) Percent conversion of enzyme=100−{(RLUNo Drug−No enzyme*100)/RLUNo drug+Enzyme} Equation 1:
(§4) Percent conversion at each data point=100−{(RLUAverage(Drug+enzyme)*100)/RLUNo drug+Enzyme} Equation 2:
(§5) Percent Inhibition=100*(% Conversioneach data point/% ConversionEnzyme) Equation 3: […]
(In general: ADP-Glo first removes unused ATP, then detects ADP through luciferase.)

In another assay the target is T3, CDK4 (Homo sapiens, UniProt P11802).
T3 construct: purchased Invitrogen PR8064 A
T3 sequence (P11802 whole entry): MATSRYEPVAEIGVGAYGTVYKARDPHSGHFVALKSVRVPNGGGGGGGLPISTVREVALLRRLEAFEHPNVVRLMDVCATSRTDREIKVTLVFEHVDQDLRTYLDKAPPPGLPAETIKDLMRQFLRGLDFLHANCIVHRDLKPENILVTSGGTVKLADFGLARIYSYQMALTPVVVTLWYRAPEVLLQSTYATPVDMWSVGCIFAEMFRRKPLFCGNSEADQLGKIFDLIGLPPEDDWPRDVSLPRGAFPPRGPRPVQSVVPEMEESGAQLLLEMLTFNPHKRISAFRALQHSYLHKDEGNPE
T3 sequence (P24385 whole entry partner): as the sequence (P24385 whole entry partner) above
The assay is described as above. Format: biochemical. The conditions noted are these: ATP 25 μM, 2H at room temperature. On the procedure:
as §2, §3, §4, §5

In the next assay the test system is MCF-7-PR. Nature of the assay: Cell viability in palbociclib-resistant cell line. Format: cell-based. The settings on record: Table 5; palbociclib-resistant cell line. On the procedure:
(§6) Cells were treated with test compounds at 7 to 9 concentrations within a desired concentration range (e.g. 1.1 nM-10 μM) on day 2 by series diluting the test compound stock solution (10 mM in DMSO) with culture medium. Treatment duration was 144H (with a medium change at 72H) for both MCF-7 and DU4475 cells. Cell viability was assessed by Cell Titer-Glo® as recommended by Promega (Cat. No.: G7572), or by resazurin assay (Sigma Aldrich, Cat. No.: R7017) post treatment.
(§7) Cell viability data were plotted using GraphPad Prism (GraphPad Software, Inc., San Diego, Calif.). In addition, a nonlinear regression model with a sigmoidal dose response and variable slope within GraphPad Prism was used to calculate the IC50 value of individual test compounds.
The effects of test compound in a palbociclib-resistant cell line and a parental, non-resistant cell line were compared. The palbociclib-resistant cell line (“MCF-7-PR”) was derived from the parental, non-resistant cell line (MCF-7 breast adenocarcinoma cells) by culture of cells over a period of three months in increasing concentrations of palbociclib, starting from about 350 nM and ending at about 850 nM, the final concentration at which they were then maintained in culture. […]

The next assay addresses T4, CDK1 (cyclin B) (Homo sapiens, UniProt P06493).
T4 construct: purchased Invitrogen Life Technologies (screening service)
Nature of the assay: Z'-LYTE kinase assay. Format: biochemical. The settings on record: ATP 34 μM, 60 minutes. The procedure: IC50 values of compounds against CDK1 (cyclin B) were determined by Z′-LYTE™. These screening assays were performed at Invitrogen Life Technologies (Grand Island, N.Y.) on a low volume NBS, black 384-well plate (#4514, Corning), 0.1 μL of 100× test compound in 100% DMSO (at specific solutions) was mixed with 2.4 μL of Kinase Buffer (50 mM HEPES pH 7.5, 0.01% BRIJ-35, 10 mM MgCl2, 1 mM EGTA), 5 μL of 2× Kinase (3.5-46.4 ng CDK1/cyclin B)/Peptide (2 μM Ser/Thr 18), and 2.5 μL of 4×ATP solution (34 μM). The plates were shaken for 30 seconds, and incubated for 60 minutes at room temperature. Development Reagent Solution (5 μL of 1:1024 dilution) was added to the plates followed with another 30-second plate shake, and the plates were further incubated at room temperature for one hour. The plates were read on fluorescence plate reader with Dual emission at 445 nm and 520 nm.
as §1

A further assay relates to MCF-7. Briefly: Cancer cell proliferation assay as a single agent (cell viability). It is filed as cell-based. The settings on record: Homo sapiens, MCF7. On the procedure:
(§8) The effects of test compounds were studied in two breast cancer cell lines of different subtype. The cancer cells (Table 3) were harvested during the logarithmic growth period and counted. Cell concentrations were adjusted to the appropriate number with respective medium and 90 μL cell suspensions were added to 96-well plates. After cells were seeded, the plates were shaken gently to distribute cells evenly and incubated at 37° C., 5% CO2 on day 1.
as §6, §7

Another assay concerns DU4475. Described as above. It is filed as cell-based. The conditions noted are these: Homo sapiens, DU-4475; Table 4; Rb negative breast carcinoma; 144H treatment. The procedure:
as §8, §6, §7

T4 sequence (P06493 whole entry): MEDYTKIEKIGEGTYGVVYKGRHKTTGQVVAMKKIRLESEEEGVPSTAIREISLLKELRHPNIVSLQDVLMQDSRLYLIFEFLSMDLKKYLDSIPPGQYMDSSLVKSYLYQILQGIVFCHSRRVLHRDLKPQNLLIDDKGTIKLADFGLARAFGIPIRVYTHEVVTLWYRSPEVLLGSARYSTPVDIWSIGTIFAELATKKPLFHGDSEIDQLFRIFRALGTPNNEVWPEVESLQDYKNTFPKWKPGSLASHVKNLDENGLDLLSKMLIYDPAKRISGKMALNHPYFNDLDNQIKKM
T4 sequence (P14635 whole entry partner): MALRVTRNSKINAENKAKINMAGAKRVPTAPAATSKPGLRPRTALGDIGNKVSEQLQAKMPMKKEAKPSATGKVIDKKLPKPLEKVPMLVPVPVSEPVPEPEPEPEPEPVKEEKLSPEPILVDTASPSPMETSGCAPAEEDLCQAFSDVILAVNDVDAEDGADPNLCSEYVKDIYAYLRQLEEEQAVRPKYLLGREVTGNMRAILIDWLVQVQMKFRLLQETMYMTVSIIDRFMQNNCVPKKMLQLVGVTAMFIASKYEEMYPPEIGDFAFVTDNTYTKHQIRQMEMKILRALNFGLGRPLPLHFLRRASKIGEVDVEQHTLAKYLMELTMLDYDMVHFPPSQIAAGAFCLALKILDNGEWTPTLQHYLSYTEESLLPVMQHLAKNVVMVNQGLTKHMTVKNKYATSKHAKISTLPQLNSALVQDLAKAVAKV

Consider `Cc1nn(C2CCNCC2)cc1Nc1ncc(F)c(-c2cc(F)c3c(c2)N(C(C)C)CCO3)n1` [Compound 67, 5-fluoro-4-(8-fluoro-4-isopropyl-3,4-dihydro-2H-benzo[b][1,4]oxazin-6-yl)-N-(3-methyl-1-(piperidin-4-yl)-1H-pyrazol-4-yl)pyrimidin-2-amine], for which the pIC50 (in general, −log10 of the IC50, conventionally taken in molar units) was 7.35 against CDK2 (cyclin A); 7.35 on CDK6; 7.80 at CDK4; 7.14 in the assay with MCF-7-PR; 7.03 on CDK1 (cyclin B); 7.10 in the assay with MCF-7 (Table 4, Rb positive breast adenocarcinoma, 144H treatment). In addition, the pIC50 was 7.40 in the assay with MCF-7 (Table 5, parental, non-resistant cell line) and 6.89 in the assay on DU4475.
